Values quoted from earlier work, collected in patent US20060074057A1, “Use of chenodeoxycholic acid for reducing adipose tissue” (priority 2004, published 2006).

Target: 11-beta-hydroxysteroid dehydrogenase type 1 (11BHSD1) (Homo sapiens, UniProt P28845)
Settings: "has been shown"; no data or method given

Chain of 11-beta-hydroxysteroid dehydrogenase type 1 (11BHSD1) (P28845 whole entry): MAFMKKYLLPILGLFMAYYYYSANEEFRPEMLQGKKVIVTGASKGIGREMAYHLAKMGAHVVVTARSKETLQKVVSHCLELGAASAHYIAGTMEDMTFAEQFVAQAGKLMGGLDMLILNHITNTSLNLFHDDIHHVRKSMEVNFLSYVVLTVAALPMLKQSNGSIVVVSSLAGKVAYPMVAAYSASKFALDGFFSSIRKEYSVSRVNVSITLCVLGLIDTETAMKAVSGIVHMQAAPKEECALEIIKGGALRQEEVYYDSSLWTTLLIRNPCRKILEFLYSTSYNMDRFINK

- inhibition of 11BHSD1 (result in words): selective inhibitor
SMILES: CC(CCC(=O)O)C1CCC2C3C(CC[C@]12C)[C@@]1(C)CC[C@@H](O)C[C@H]1C[C@H]3O (stereo partly drawn) [Chenodeoxycholic acid, 3-alpha,7-alpha-dihydroxy-5-beta-cholanic acid]
